Literature values, collected in patent publication US20100151008A1, “Preparations and Methods for Textile and or Fiber Surface Finishing, Surface Finished Articles Prepared Thereby, and Uses Therefor” (Cognis IP Management GmbH, priority 2003, published 2010).

## CC(C)CCC[C@@H](C)[C@H]1CC[C@H]2[C@@H]3CC=C4C[C@@H](O)CC[C@]4(C)[C@H]3CC[C@]12C [cholesterol, 5-cholesten-3b-ol]
alcohol
  solubility in alcohol: only sparingly when cold, but more readily after heating
ether, benzene and petroleum ether
  solubility in ether, benzene and petroleum ether: soluble
water
  solubility in water: virtually insoluble
